Results as given in EPA's ToxValDB 9.5 (doi:10.2903/j.efsa.2014.3880).
Where “and” joins values, the source holds several entries; their conditions need not be identical. Identical values can stand only once.

Legend:
[1] = test system: Anas platyrhynchos; settings: short-term; oral; feed; food consumption
[2] = test system: Apis mellifera; settings: acute, mortality
[3] = test system: Bibionidae; settings: chronic/long-term; duration: 23 days; reproduction
[4] = test system: Colinus virginianus
[5] = test system: Daphnia magna; settings: chronic/long-term; duration: 21 days; reproduction
[6] = test system: Folsomia candida; settings: chronic/long-term
[7] = test system: Oncorhynchus mykiss; settings: chronic/long-term; duration: 65 days; mortality
[8] = test system: Rattus norvegicus; settings: for NOAEL: chronic
[9] = test system: Tagia sp.
[10] = test system: Typhlodromus pyri; assay: LR50; higher = less toxic; settings: not reported; reproduction

c1ccc2[nH]c(-c3cscn3)nc2c1 [Thiabendazole]
LC50 [1]: > 1290 mg/kg
LD50 ([2]; dermal): > 34 µg/piece
LD50 ([2]; oral, unspecified): > 200 µg/piece
NOEC [3]: 2 mg/L and 3 mg/kg
LD50 ([4]; acute, oral): > 2250 mg/kg
NOAEL ([4]; reproduction developmental): 34.9 mg/kg-day
NOEC [5]: 0.041 mg/L
NOEC [6]: 25 mg/kg
NOEC [7]: 0.012 mg/L
LD50 ([8]; acute): 3100 mg/kg
NOAEL [8]: 10 mg/kg-day
NOAEL ([8]; duration: 2 years, histopathology: neoplastic): 10 mg/kg-day
NOEL ([8]; reproduction developmental, reproduction): 10 mg/kg-day
LC50 ([9]; acute, duration: 14 days, mortality): > 224 mg/kg
NOEC ([9]; chronic/long-term, duration: 8 weeks): 2.1 mg/kg
LR50 [10]: > 1800 g/ha
